From patent US7048943B2, “Carotenoid-loaded liposomes” (Yissum Research Development Company of the Hebrew …, priority 2001, dated 2006)
In brackets after ≈: the same amount, converted by molar mass.

Columns and labels:
[1] = Partition of lycopene in tri-phase system (soya oil / water / egg PC SUV); assay type: physicochemical; settings: for Kp Lip/Oil: partition coefficient liposome/oil, liposomes 10% by weight; for Liposome/oil: ratio of lycopene in liposomal phase to oil phase; for Insoluble lycopene / lycopene concentration, Liposomal phase / lycopene concentration, Oil phase: soya oil / water / egg PC SUV, highest lycopene level; for lycopene concentration, Liposomal phase / lycopene concentration, Oil phase: mixed 2 hours at room temperature
Procedure: The partition coefficient of lycopene in tri-phase systems was also evaluated. Tri-phase systems may serve for the determination of availability of the lycopene into biological membranes. The system used herein was composed from […]: soya oil in which the lycopene was present and water in which liposomes (10% by weight) in the form of small unilamellar vesicles (SUV) composed of pure egg phosphatidyl choline are present as the third phase.
The small unilamellar liposomes (SUV) composed of pure lipid (Ludwigshafen, Germany) egg phosphatidylcholine (egg PC) of an 80 nm were prepared and characterized as described by Haran et al. [Haran G. et al. Biochim. Biophys. Acta 1151:201–215 (1993)]. SUV egg PC size was ˜80 nm. The partition coefficient in the three phase system was performed at three different levels of lycopene—low, medium and high amounts, using crystalline lycopene (originated from fungi), 92% powder (LycoRed), 75% powder lycopene (LycoRed) and oleoresin (containing 6.06% by weight of lycopene). In case of the highest level, lycopene from tomato concentrate (containing 0.073% lycopene) was also evaluated.
Preparation of the three phase systems included the following steps; first, lycopene was dispersed in soya oil (4 ml) by ultrasonic irradiation in an ultrasonic bath (35 kHz, 285W). Then, the precipitate was removed, aliquots of the oil were diluted in isopropanol with ratio ranging from 1:10 to 1:100 and the concentration of lycopene in oil phase was determined.
Then, to soya oil saturated with lycopene (1.5 ml) egg PC SUV in water (1.5 ml) were added to form the three phase system. The system was then mixed for 2 hours at room temperature using a flask shaker (A5-6021, St. John Associate Inc.), after which aliquots of the oil phase and the liposomal aqueous phase were removed.
In particular, the aqueous phase was extracted using heptane into which more than 98% of the lycopene was extracted. This extract was evaporated to dryness and the residue was dissolved in 200 μl isopropanol and analyzed by HPLC to determine the amount of lycopene present in the liquid and oil phase.
The concentration of lycopene in the liposome phase was calculated based on the procedure of Samuni and Barenholz [Samuni A. M. and Barenholz Y, Biol. Med. 22:1165–1174 (1996); Barenholz Y. et al. M. Biophys. J. 59:110–124 (1991)]. The following Table 4 summarizes the results obtained.

[2] = test system: Epidermal equivalents (normal, human-derived epidermal keratinocytes); assay: Protection against UV induced loss of viability (LDH release); assay type: cell-based
Procedure: (§1) Cell Culture • Epidermal equivalents (4.0 cm^2) were purchased from SkinEthic (Nice, France). Each equivalent served as a multilayered model of the epidermis consisting of normal, human-derived epidermal keratinocytes. Equivalents were cultured in a defined hydrocortisone and phenol red free medium supplied from SkinEthic. Instruments • Kontron (Switzerland) HPLC system. 425 pump, 430 detector, 460 automatic injector and 450 data analysis system. Column: LiChroCART®250-4, RP-select B (5 μm), Merck catalog no. […]
(§2) Twenty four hours post irradiation, the culture medium was collected from the treated epidermal equivalents and evaluated for IL-1α release levels using a commercially available ELISA kit. Cell viability was determined immediately post irradiation using LDH leakage measurments.
(§3) Epidermal Equivalents were purchased from SkinEthic (Nice, France) and cultured in phenol free, hydrocortisone free media. […] Forty-eight hours post irradiation, the medium beneath each equivalent was collected and analyzed for secreted IL-1α by ELISA (Endogen). LDH level (Boehringer Mannheim) was measured immediately post irradiation and after 48 hours to determine the effect of treatment and UV exposure on cell viability. […]

CD-1 Mice = assay: Oxazolone induced ear edema; assay type: in vivo; settings: topical on left ear 1 hour after 2% oxazolone challenge, ear punch weight after 24 hours, versus vehicle group
Procedure: CD-1 Mice were induced with 3% oxazolone (Sigma) (30 mg/ml) made up in corn oil: acetone on a shaved abdomen. Five days later the mice were challenged with a 2% oxazolone (20 (mg/ml) in acetone on the left ear, right ear was untreated. One hour after challenging, the formulations examined (E1–E8) in a 70% EtOH/30% propylene glycol vehicle were applied onto the left ear. After 24 hours the mice were sacrificed and 7 mm ear punches were taken. The ear punches were placed on a scale and the difference between the treated and untreated ears was measured.
The percent inhibition was calculated by comparing the means of each group to the vehicle group. The positive control was hydrocortisone.

[3] = test system: Epidermal equivalents (normal, human-derived epidermal keratinocytes); assay: Protection against UV induced IL-1α release; assay type: cell-based; settings: at 0.01%, UV irradiation
Procedure: as §1, §2, §3

[4] = Solubility of lycopene in organic solvents (saturation concentration, HPLC and absorbance at 472 nm)
Procedure: Lycopene Quantification—lycopene was analyzed for degradation and quantified by The HPLC buffer used comprised acetonitrile: methanol: methylene chloride: hexane and a ratio of 850:100:25:25 (all HPLC grade, Hoffman La Roche). Quantification was based on a standard curve obtained for lycopene (LycoRed standard. The amount of lycopene was also determined by absorbance at 472 nm.
All samples were diluted with ethanol before measurement. The saturation concentrations of the lycopene were determined by BPLC and by the use of a spectrophotometer (absorbance at 472 nm, where the area under the peak was measured). The saturation limit was defined as the concentration where a precipitate first appears. The concentration of lycopene at saturation was determined after removal of precipitate by high speed centrifugation from the absorbance at 472 nm (the λmax for the ‘red’ form of lycopene) using double beam UVikon 860 (Kontron, Switzerland) spectrometer.
Both types of lycopene were in a powder form before dissolving in cyclohexane. […] These measures were taken after a year and a half of storage at −20° C.

[5] = Entrapment of lycopene in MLV liposomes; assay type: physicochemical; settings: liposomes composed of lipid/lycopene 10:1
Procedure: Method of Preparation—The phospholipids were dissolved in cyclohexane at a w/v ratio of 1 mg phospholipid per 10 ml cyclohexane. The dissolving required heating for several seconds at 60° C. and/or sonication for up to 3 minutes. Lycopene was added as powder to the solution, which was then vortexed. The resulting solution was lyophilized overnight and kept at −20° C. until use. To form multilamellar liposome (MLV), 2 ml of 0.9% NaCl were added to the lyophilizate followed by vortex to yield MLV encapsulated lycopene.
Method of Preparation—Lycopene was dissolved in cyclohexane at a w/v ratio of 1 mg of lycopene per 2 ml of cyclohexane. The dissolving required heating for several seconds at 60° C. and sonication for up to 3 minutes until all the lycopene was dissolved. The phospholipids were added as powder to the solution and the mixture was mixed with vortex. The solution was lyophilized overnight in bottles and closed in vacuum. The lyophilized bottles were kept at −20° C. until use.
To form MLV encapsulated lycopene, 2 ml of 0.9% NaCl were added followed by vortex. The percentage of entrapment of lycopene in the formulation was 85.31%.
In general, the population of the liposomes was heterogeneous. […] The 75% lycopene entrapment in liposomes composed of lipid/lycopene 10:1 was measured, wherein 17.5% of the lycopene was entrapped in the MLV. […]

CC(C)=CCC/C(C)=C/C=C/C(C)=C/C=C/C(C)=C/C=C/C=C(C)/C=C/C=C(C)/C=C/C=C(\C)CCC=C(C)C [Power 92% Powder, lycopene]
Kp Lip/Oil [1]: 0.4141 | Liposome/oil [1]: 0.0414 | Insoluble lycopene [1]: 6.7084 mμ | lycopene concentration, Liposomal phase [1]: 0.0020 mμ | lycopene concentration, Oil phase [1]: 0.0495 mμ

O=C(O)CCCC[C@@H]1CCSS1 (racemic) [Lipoic Acid, lipoic acid]
Loss of viability (LDH), LDH release, protection ([2]; at 1%, UV irradiation (Table 7C)): 100% protection with 1%

C[C@]12CCC(=O)C=C1CC[C@@H]1[C@@H]2[C@@H](O)C[C@@]2(C)[C@H]1CC[C@]2(O)C(=O)CO [Hydrocortisone, hydrocortisone]
% inhibition (CD-1 Mice): 92.6%

O=C1O[C@H]([C@@H](O)CO)C(O)=C1O [Ascorbic acid, ascorbic acid]
IL-1α release, protection, First assay [3]: 100% protection with 0.01% | LDH Release, protection, First assay ([2]; at 0.01%, UV irradiation): 100% protection with 0.01%

CC(C)=CCC/C(C)=C/C=C/C(C)=C/C=C/C(C)=C/C=C/C=C(C)/C=C/C=C(C)/C=C/C=C(\C)CCC=C(C)C [lycopene]
solubility in an aqueous phase ([1]; conclusion from tri-phase system): very low, if any

CC(C)=CCC/C(C)=C/C=C/C(C)=C/C=C/C(C)=C/C=C/C=C(C)/C=C/C=C(C)/C=C/C=C(\C)CCC=C(C)C [lycopene 95%, lycopene]
solubility ([4]; cyclohexane, organic solvent or mixture, thermodynamic from solid, maximal solubility in cyclohexane, after a year and a half of storage at −20° C.): 2650 µM (≈ 1420 µg/mL)

CC(C)=CCC/C(C)=C/C=C/C(C)=C/C=C/C(C)=C/C=C/C=C(C)/C=C/C=C(C)/C=C/C=C(\C)CCC=C(C)C [lycopene 75%, lycopene]
Kp Lip/Oil ([1]; listed as Powder 75%): 0.4972 | Liposome/oil ([1]; listed as Powder 75%): 0.0497 | Insoluble lycopene ([1]; listed as Powder 75%): 5.7899 mμ | lycopene concentration, Liposomal phase ([1]; listed as Powder 75%): 0.0062 mμ | lycopene concentration, Oil phase ([1]; listed as Powder 75%): 0.1239 mμ | maximal solubility in cyclohexane ([4]; after a year and a half of storage at −20° C.): 1960 µM | Concentration (mM)/HPLC ([4]; saturation in Cyclohexane): 0.22 mM | Concentration (mM)/HPLC ([4]; saturation in Soy oil): 0.14 mM | Concentration (mM)/HPLC ([4]; saturation in ethanol): 0.059 mM | Concentration (mM)/HPLC ([4]; saturation in i-propanol): 0.037 mM | Concentration (mM)/HPLC ([4]; saturation in n-hexane): 0.18 mM | Concentration (mM)/HPLC ([4]; saturation in t-butanol): 0.016 mM | lycopene entrapped in the MLV [5]: 17.5%

CC(C)=CCC/C(C)=C/C=C/C(C)=C/C=C/C(C)=C/C=C/C=C(C)/C=C/C=C(C)/C=C/C=C(\C)CCC=C(C)C [Crystalline, lycopene, reference compound]
Kp Lip/Oil [1]: 0.00952 | Liposome/oil [1]: 0.00095 | Insoluble lycopene [1]: 6.9740 mμ | lycopene concentration, Liposomal phase [1]: 0.0001 mμ | lycopene concentration, Oil phase [1]: 0.1458 mμ
